Reference: article PMC5408233, “Marine Cyclic Guanidine Alkaloids Monanchomycalin B and Urupocidin A Act as Inhibitors of TRPV1, TRPV2 and TRPV3, but not TRPA1 Receptors” (Marine Drugs, 2017)
Like-named read-outs stand apart in the source and are kept apart here. Blank lines part the entries; values can stand above or below the compound they belong to.

Columns and labels:
[1] = target: T1, rat TRPV1 (rTRPV1) (Rattus norvegicus, UniProt O35433); assay: Fluo-4 intracellular calcium assay, inhibition of capsaicin-induced [Ca2+] response in CHO cells expressing rTRPV1; assay type: cell-based
T1 construct: expressed in transfected cells
T1 sequence (O35433 whole entry): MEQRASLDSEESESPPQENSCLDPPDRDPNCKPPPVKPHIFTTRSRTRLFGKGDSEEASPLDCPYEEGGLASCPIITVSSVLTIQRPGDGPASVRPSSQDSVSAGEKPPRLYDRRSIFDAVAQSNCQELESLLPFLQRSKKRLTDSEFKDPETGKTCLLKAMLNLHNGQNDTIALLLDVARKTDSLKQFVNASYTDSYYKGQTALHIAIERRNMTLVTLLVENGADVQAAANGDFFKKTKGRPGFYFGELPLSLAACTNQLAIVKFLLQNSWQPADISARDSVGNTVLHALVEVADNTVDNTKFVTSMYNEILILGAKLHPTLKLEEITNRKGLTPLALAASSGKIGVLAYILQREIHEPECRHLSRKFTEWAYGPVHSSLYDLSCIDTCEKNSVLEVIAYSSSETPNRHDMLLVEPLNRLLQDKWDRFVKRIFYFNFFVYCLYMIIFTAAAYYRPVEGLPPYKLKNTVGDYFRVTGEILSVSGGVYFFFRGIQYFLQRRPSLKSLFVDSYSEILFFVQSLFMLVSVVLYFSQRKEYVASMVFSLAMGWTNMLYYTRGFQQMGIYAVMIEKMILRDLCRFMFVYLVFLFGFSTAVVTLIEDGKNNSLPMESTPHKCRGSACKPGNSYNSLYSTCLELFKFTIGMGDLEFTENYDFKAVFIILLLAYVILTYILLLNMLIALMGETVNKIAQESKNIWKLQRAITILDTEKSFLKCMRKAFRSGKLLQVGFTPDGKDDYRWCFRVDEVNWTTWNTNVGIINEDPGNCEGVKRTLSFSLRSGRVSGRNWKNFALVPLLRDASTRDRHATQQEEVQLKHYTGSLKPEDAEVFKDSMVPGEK
Protocol: (§1) The guanidine alkaloids (1–4) were tested on inhibitory activities against rTRPV1 (Figure 2A), mTRPV2 (Figure 2B), hTRPV3 (Figure 2C) and rTRPA1 receptors expressed in CHO (Chinese hamster ovary) cells in a Fluo-4–based intracellular calcium assay.
(§2) Figure 2 Dose-response curves for monanchomycalin B (1), urupocidin A (2), semi-synthetic urupocidin A derivatives (3, 4) inhibitory activity on agonist-induced [Ca^2+] responses in CHO cells expressing rTRPV1 (A); mTRPV2 (B); hTRPV3 (C). Responses were measured as the pseudo-ratio (ΔFI/FI) determined using the following formula ΔFI/FI = (FI-FIbase)/FIbase, where FI is the measured peak fluorescence intensity, Fbase is the fluorescence intensity in non-stimulated cells. Inhibitory activity was expressed as the percentage of the response in the control experiment (untreated by alkaloids cells). Data are expressed as mean ± s.e. (n = 4–8).
(§3) The effect of 1–4 on all the TRP-expressing cells was measured after preincubation at 37 °C for 30 min for standardization. […] Capsazepine (CZP) or non-specific blocker ruthenium red (RR) were used as a positive control for TRPV1 and for the other studied TRP receptors correspondingly.
(§4) The mouse TRPV2 gene was cloned form pancreatic beta cell line MIN6 and the CHO cell line stably expressing mouse TRPV2 was generated using T-Rex System (Thermo Fisher Scientific Inc., Waltham, MA, USA) similarly previously obtained stable cell lines for rat TRPV1, human TRPV3 and rat TRPA1 [6, 8]. Fluorescent assays were performed as described in [6]. The alkaloid’s solutions of desired concentration were obtained by serial dilution of water stock solutions (10 mg/mL) in calcium assay buffer (10 mM HEPES/HBSS, pH 7.4). The buffer alone (negative control) or serial dilutions of alkaloids 1–4 (20 μl) were added to the cells loaded with the cytoplasmic calcium indicator Fluo-4AM using Fluo-4 Direct™ Calcium Assay Kit (Thermo Fisher Scientific Inc., Waltham, MA, USA) (80 μl) and the cells were incubated 30 min at 37 °C. Changes in cell fluorescence (λex = 485 nm, λem = 520 nm) were monitored using NOVO star (BMG LABTECH, Ortenberg, Germany) before and after the addition of relevant agonist (500 nM capsaicin for rTRPV1, 300 μM 2APB for mTRPV2, 200 μM 2APB for hTRPV3, 100 μM AITC for rTRPA1) at 25 °C. Average cell responses to agonists in controls were about 60, 45, 40, 85% of the responses produced by 5 μM ionomycin for rTRPV1, mTRPV2, hTRPV3, rTRPA1 correspondingly. To avoid the spread of the data due to prolonged instrumental measurement each experimental point has control in the nearest plate wells. Curve fitting and parameter estimations were performed with Microsoft Excel 2007 (Microsoft Corporation, Redmond, WA, USA) and Origin 7.0 (OriginLab Corporation, Northampton, MA, USA). The EC50 values were determined as the concentration of test substance required to produce half-maximal decreases in [Ca^2+].

[2] = tested on: HL-60 human leukemia cells; design: method as in doi:10.1016/j.tetlet.2012.05.162; conditions: cited from earlier work
[3] = target: T2, mouse TRPV2 (mTRPV2) (Mus musculus, UniProt Q9WTR1); assay: Fluo-4 intracellular calcium assay, inhibition of 2APB-induced [Ca2+] response in CHO cells expressing mTRPV2; assay type: cell-based
T2 construct: expressed in transfected cells
T2 sequence (Q9WTR1 1-756): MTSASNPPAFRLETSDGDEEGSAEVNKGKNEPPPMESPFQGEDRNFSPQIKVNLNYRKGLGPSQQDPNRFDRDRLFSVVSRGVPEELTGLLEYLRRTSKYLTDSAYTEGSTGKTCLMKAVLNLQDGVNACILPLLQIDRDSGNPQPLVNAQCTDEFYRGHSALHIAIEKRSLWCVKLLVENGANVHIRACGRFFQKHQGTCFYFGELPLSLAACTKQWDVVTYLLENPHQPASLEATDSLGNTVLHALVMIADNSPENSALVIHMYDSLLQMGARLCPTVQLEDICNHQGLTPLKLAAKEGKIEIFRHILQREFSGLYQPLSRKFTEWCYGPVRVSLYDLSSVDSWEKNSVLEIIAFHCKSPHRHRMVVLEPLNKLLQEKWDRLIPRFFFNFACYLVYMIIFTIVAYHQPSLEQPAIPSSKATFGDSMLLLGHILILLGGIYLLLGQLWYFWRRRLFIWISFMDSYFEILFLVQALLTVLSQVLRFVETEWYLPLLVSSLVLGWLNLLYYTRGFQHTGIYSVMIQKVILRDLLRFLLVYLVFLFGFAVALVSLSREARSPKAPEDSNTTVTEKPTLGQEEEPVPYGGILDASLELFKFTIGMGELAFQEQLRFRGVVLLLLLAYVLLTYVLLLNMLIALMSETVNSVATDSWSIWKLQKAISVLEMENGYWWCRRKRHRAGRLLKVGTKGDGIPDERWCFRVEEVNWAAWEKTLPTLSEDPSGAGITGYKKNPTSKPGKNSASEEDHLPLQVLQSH
Protocol: as §1, §2, §3
The mouse TRPV2 gene was cloned form pancreatic beta cell line MIN6 and the CHO cell line stably expressing mouse TRPV2 was generated using T-Rex System (Thermo Fisher Scientific Inc., Waltham, MA, USA) similarly previously obtained stable cell lines for rat TRPV1, human TRPV3 and rat TRPA1 [6, 8]. Fluorescent assays were performed as described in [6]. […] Changes in cell fluorescence (λex = 485 nm, λem = 520 nm) were monitored using NOVO star (BMG LABTECH, Ortenberg, Germany) before and after the addition of relevant agonist (500 nM capsaicin for rTRPV1, 300 μM 2APB for mTRPV2, 200 μM 2APB for hTRPV3, 100 μM AITC for rTRPA1) at 25 °C. […] The EC50 values were determined as the concentration of test substance required to produce half-maximal decreases in [Ca^2+].

[4] = target: T3, rat TRPA1 (rTRPA1) (Rattus norvegicus, UniProt Q6RI86); assay: Fluo-4 intracellular calcium assay, inhibition of AITC-induced [Ca2+] response in CHO cells expressing rTRPA1; assay type: cell-based; conditions: for EC50 (µM) rTRPA1: inhibitory activity, CHO cells expressing rTRPA1, agonist 100 μM AITC, preincubation 30 min at 37 °C
T3 construct: expressed in transfected cells
T3 sequence (Q6RI86 whole entry): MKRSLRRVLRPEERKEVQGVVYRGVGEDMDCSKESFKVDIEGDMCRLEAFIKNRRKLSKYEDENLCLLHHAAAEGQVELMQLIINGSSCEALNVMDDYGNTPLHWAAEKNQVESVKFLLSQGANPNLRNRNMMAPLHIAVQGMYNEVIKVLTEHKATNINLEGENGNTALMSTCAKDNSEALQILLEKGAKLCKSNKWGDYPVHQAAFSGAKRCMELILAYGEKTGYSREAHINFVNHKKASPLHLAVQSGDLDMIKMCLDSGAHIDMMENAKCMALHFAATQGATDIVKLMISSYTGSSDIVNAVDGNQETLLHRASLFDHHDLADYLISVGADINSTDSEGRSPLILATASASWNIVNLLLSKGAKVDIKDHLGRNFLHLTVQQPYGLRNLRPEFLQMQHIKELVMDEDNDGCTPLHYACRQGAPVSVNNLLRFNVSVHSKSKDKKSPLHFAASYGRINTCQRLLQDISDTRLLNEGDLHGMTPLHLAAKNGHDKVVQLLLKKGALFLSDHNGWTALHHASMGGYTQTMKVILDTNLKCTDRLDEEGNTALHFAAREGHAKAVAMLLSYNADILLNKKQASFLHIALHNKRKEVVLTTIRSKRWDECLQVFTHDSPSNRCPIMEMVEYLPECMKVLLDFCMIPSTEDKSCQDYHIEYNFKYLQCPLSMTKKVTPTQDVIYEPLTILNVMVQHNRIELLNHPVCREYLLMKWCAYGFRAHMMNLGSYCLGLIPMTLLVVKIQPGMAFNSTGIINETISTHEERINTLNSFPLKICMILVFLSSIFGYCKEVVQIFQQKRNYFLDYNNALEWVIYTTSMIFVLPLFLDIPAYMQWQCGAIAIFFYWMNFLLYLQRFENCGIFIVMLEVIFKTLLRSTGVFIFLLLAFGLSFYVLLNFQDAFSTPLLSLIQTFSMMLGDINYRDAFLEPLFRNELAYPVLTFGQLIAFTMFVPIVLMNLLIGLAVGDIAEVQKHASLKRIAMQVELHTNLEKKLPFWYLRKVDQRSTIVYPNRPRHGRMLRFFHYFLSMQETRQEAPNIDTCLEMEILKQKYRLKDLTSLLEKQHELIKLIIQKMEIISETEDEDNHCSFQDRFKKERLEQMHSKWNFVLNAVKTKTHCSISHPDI
Protocol: as §1, §3, §4

[5] = target: T4, human TRPV3 (hTRPV3) (Homo sapiens, UniProt Q8NET8); assay: Fluo-4 intracellular calcium assay, inhibition of 2APB-induced [Ca2+] response in CHO cells expressing hTRPV3; assay type: cell-based
T4 construct: expressed in transfected cells
T4 sequence (Q8NET8 1-790): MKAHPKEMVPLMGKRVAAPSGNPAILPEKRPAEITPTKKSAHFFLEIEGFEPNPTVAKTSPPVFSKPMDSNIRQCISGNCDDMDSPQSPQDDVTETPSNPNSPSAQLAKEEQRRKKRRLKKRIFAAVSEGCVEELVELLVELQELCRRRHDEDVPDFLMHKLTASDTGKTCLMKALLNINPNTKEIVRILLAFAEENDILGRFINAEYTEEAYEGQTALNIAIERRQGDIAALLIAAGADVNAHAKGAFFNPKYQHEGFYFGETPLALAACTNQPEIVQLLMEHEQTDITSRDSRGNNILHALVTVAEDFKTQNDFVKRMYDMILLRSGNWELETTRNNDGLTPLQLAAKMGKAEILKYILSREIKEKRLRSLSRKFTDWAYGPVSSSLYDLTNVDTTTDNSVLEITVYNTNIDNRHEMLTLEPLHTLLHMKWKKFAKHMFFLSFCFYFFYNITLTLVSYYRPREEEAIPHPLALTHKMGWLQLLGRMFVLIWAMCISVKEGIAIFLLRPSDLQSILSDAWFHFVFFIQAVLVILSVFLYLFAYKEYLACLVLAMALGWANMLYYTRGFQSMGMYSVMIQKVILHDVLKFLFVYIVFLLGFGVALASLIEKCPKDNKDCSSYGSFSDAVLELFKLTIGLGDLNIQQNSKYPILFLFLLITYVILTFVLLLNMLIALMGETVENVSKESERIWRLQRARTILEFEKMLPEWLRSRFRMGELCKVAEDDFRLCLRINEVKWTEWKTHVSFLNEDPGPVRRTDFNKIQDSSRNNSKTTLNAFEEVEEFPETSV
Protocol: as §1, §2, §3, §4

[6] = target: T3, rat TRPA1 (rTRPA1); design: method as in doi:10.1007/s10600-015-1243-6; conditions: read-out: EC50, inhibition of rTRPA1; cited from earlier work
[7] = target: T1, rat TRPV1 (rTRPV1); design: method as in doi:10.1007/s10600-015-1243-6, doi:10.1016/j.tetlet.2012.12.099; conditions: determined in the same test system; read-out: EC50, inhibitory activity against rTRPV1; cited from earlier work
[8] = target: T4, human TRPV3 (hTRPV3); design: method as in doi:10.1007/s10600-015-1243-6, doi:10.1016/j.tetlet.2012.12.099; conditions: determined in the same test system; read-out: EC50, inhibitory activity toward hTRPV3; cited from earlier work
[9] = inhibitory activity, CHO cells expressing rTRPV1, agonist 500 nM capsaicin, preincubation 30 min at 37 °C, mean ± s.e., read-out: EC50 (µM) rTRPV1
[10] = inhibitory activity, CHO cells expressing hTRPV3, agonist 200 μM 2APB, preincubation 30 min at 37 °C, mean ± s.e., read-out: EC50 (µM) hTRPV3
[11] = 20 µM RR, positive control, data not shown

Compound: CCC=CC1CCC2(CC3CCC4C(C(=O)OCCCCCCCCCCCCCCCC(=O)N(CCCN)CCCCN)C5(CCCC(C)O5)NC(=[N+]34)N2)O1 (stereo not drawn) [Compound 1, monanchomycalin B]
EC50 [1]: 6.02 ± 0.36 µM
Cytotoxic activities against HL-60 human leukemia cells [2]: potent cytotoxic activities
EC50 [3]: 2.84 ± 1.01 µM
EC50 (µM) rTRPA1 [4]: not active
EC50 [5]: 3.25 ± 0.6 µM

Compound: C1=C/[C@H]2[C@@H]3CCCC[C@H]3C[C@@H]2NCCCN[C@@H]2C[C@@H]3CCCC[C@H]3[C@@H]2/C=C/1 [haliclonadiamine]
EC50 [6]: 86.7 µM
EC50 [7]: 19.9 µM
EC50 [8]: 77 µM

Compound: pulchranin A
EC50 [6]: 174 µM
EC50 [7]: 27.5 µM
EC50 [8]: 71.8 µM

The remaining lines, values ahead:

EC50 (µM) rTRPV1 ([1]; inhibitory activity, CHO cells expressing rTRPV1, agonist 500 nM capsaicin, preincubation 30 min at 37 °C, mean ± s.e.): almost not active
EC50 [1, 9]: 435 ± 49.9 µM
EC50 (µM) rTRPA1 [4]: not active
EC50 (µM) hTRPV3 ([5]; inhibitory activity, CHO cells expressing hTRPV3, agonist 200 μM 2APB, preincubation 30 min at 37 °C, mean ± s.e.): almost not active
EC50 [5, 10]: 193 ± 25.5 µM
Compound: CCC/C=C\CC[C@@H](O)C[C@H]1CCC2=C(C(=O)OC)[C@H](CC/C=C\CCC)NC(=N)N21 [Compound 4]

Inhibition of the [Ca2+] response induced by specific agonist (TRPV1) ([1]; 10 µM CZP, positive control, data not shown): full inhibition
Compound: Oc1cc2c(cc1O)CN(C(=S)NCCc1ccc(Cl)cc1)CCC2 [CZP, Capsazepine, reference compound]

EC50 [1, 9]: 21.5 ± 2.51 µM
EC50 ([3]; inhibitory activity, CHO cells expressing mTRPV2, agonist 300 μM 2APB, preincubation 30 min at 37 °C, mean ± s.e., read-out: EC50 (µM) mTRPV2): 28.1 ± 6.65 µM
EC50 (µM) rTRPA1 [4]: not active
EC50 [5, 10]: 23.6 ± 2.03 µM
Compound: CCC/C=C\CC[C@@H](O)C[C@H]1CCC2=C(C(=O)OCCCCN(O)C(=N)N)[C@H](CC/C=C\CCC)NC(=N)N21 [Compound 2, urupocidin A]

Inhibition of the [Ca2+] response induced by specific agonist (TRPV2) [3, 11]: full inhibition
Inhibition of the [Ca2+] response induced by specific agonist (TRPA1) [4, 11]: full inhibition
Inhibition of the [Ca2+] response induced by specific agonist (TRPV3) [5, 11]: full inhibition
Compound: N.N.N.N.N.N.N.N.N.N.N.N.N.N.[Cl-].[Cl-].[Cl-].[Cl-].[Cl-].[Cl-].[O-2].[O-2].[Ru+3].[Ru+3].[Ru+4] [RR, ruthenium red, reference compound]

EC50 [1, 9]: 52.8 ± 5.31 µM
EC50 (µM) rTRPA1 [4]: not active
EC50 [5, 10]: 29.2 ± 3.18 µM
Compound: CCCCCCC[C@@H](O)C[C@H]1CCC2=C(C(=O)OCCCCN(O)C(=N)N)[C@H](CCCCCCC)NC(=N)N21 [Compound 3, Tetrahydrourupocidin A]
